Assay results as given in patent US7071190B2, “Inhibitors to tubulin polymerization” (Rigel Pharmaceuticals, Inc., priority 2002, dated 2006).
pIC50: −log10 of the molar value.

System: A549 cells
Assay: Bromodeoxyuridine (BrdU) proliferation assay
Format: cell-based, human
Conditions: for pIC50: Homo sapiens, A549, 48 h, BrdU ELISA 48 hours after addition of compound, tested 0.03-10 uM, cell line not given (A549 method; SW-480 and MDA-MB-231 also used), read-out: Assay Result (IC50μM); for Activity ranking: most active compounds of the invention / Activity ranking: particularly active examples of the compounds of the invention: antiproliferative activity
Protocol: In order to determine the antiproliferative activity of microtubule inhibitors, A549 cells were plated in 96 well plates at 2000 cells/well 24 hours prior to the addition of a compound of the invention in 80 ul growth media (F12K, 10% FBS, Pen/Strep). Prior to addition to cells, compounds were solubilized in 100% DMSO to 5 mM and serially diluted in 6 semi-log steps in 100% DMSO. The diluted compounds were added to cells by two 15.8-fold dilution steps, the first being a dilution into a 23% ethanol/H2O mixture and the second being a dilution into growth media. Finally, these dilutions were followed by a 1:1 dilution onto cells. The resulting final solvent concentration was 0.2% DMSO/0.75% ethanol. Compounds were tested at final concentrations of 10, 3, 1, 0.3, 0.1 and 0.03 uM. Forty-eight hours after the addition of compound, the effects on cellular proliferation were measured using a cell proliferation BrdU ELISA (Roche Molecular Biochemicals, Cat.#1 669 915).

Compound | pIC50 | Activity ranking: most active compounds of the invention | Activity ranking: particularly active examples of the compounds of the invention
COCCNC(=S)NNc1ncnc2cc(-c3ccccc3)sc12 [Compound 73] | 6.69 | most active | particularly active
COCCCNC(=S)NNc1ncnc2cc(-c3ccccc3)sc12 [Compound 74] | 7.27 | most active | particularly active
COC(=O)CCNC(=S)NNc1ncnc2cc(-c3ccccc3)sc12 [Compound 76] | 6.73 | most active | particularly active
Cc1cccc(-c2cc3ncnc(NNC(=S)NCC4CCCO4)c3s2)c1 (stereo not drawn) [Compound 79] | 6.14 | most active | particularly active
Cc1cccc(-c2cc3ncnc(NNC(=S)NC[C@@H]4CCCO4)c3s2)c1 [Compound 80] | 6.82 | most active | particularly active
COc1cccc(-c2cc3ncnc(NNC(=S)NCC4CCCO4)c3s2)c1 (stereo not drawn) [Compound 81] |  |  | particularly active
Cc1cccc(-c2cc3ncnc(NNC(=S)NCC4COC(C)(C)O4)c3s2)c1 (stereo not drawn) [Compound 82] |  |  | particularly active
Cc1cccc(-c2cc3ncnc(NNC(=S)NCc4ccco4)c3s2)c1 [Compound 83] | 6.90 | most active | particularly active
CCNC(=S)NNc1ncnc2cc(-c3cccc(C)c3)sc12 [Compound 84] | 6.95 | most active | particularly active
CCCNC(=S)NNc1ncnc2cc(-c3cccc(C)c3)sc12 [Compound 85] | 7.36 | most active | particularly active
Cc1cccc(-c2cc3ncnc(NNC(=S)NC(C)C)c3s2)c1 [Compound 86] | 7.59 | most active | particularly active
COCCNC(=S)NNc1ncnc2cc(-c3ccc(C)cc3)sc12 [Compound 87] | 6.78 | most active | particularly active
COCCCNC(=S)NNc1ncnc2cc(-c3cccc(C)c3)sc12 [Compound 89] | 7.55 | most active | particularly active
COCCNC(=S)NNc1ncnc2cc(-c3cccc(C(F)(F)F)c3)sc12 [Compound 91] | 5.66 |  | particularly active
COCCNC(=S)NNc1ncnc2cc(-c3ccc(OC)cc3)sc12 [Compound 92] | 5.93 |  | particularly active
Cc1cc(C)cc(-c2cc3ncnc(NNC(=S)NCC4CCCO4)c3s2)c1 (stereo not drawn) [Compound 98] | 7.60 | most active | particularly active
Cc1cc(C)cc(-c2cc3ncnc(NNC(=S)NC(C)C)c3s2)c1 [Compound 99] | 7.07 | most active | particularly active
COCCNC(=S)NNc1ncnc2cc(-c3cc(C)cc(C)c3)sc12 [Compound 100] | 7.89 | most active | particularly active
